The nature of one series: in vivo. The note with it: mouse, in vivo. The protocol: (§1) The samples are put in a solution either in water or in a mixture of water-DMSO (3:2; v/v) so as to obtain solutions of varying concentrations,either lower than or equal to 130 g·L^-1; the volumes injected are calculated on the basis of 0.2 mL for a mouse body weight of 20 g.
(§2) The toxicity is evaluated starting from aqueous solutions, either buffered or not with NaH2 PO4 or else with Na2 HPO4, or else after addition of a stoichiometric quantity of NaHCO3.
(§3) The 2-methyl-3-hydroxypyridine-4(1H)-one derivatives of glycerol (14), of xylitol (17), of mono-acetone xylose (12) and of solketal (11) were injected by I. V. route.
(§4) The 2-methyl-3-hydroxypyridine-4(1H)-one compound of diacetone xylitol (10) was injected by I. P. route.

Another series deals with mice. As to the kind of experiment: in vivo. The protocol: as §1, §2, §3, §4
Where [1] appears, read: male and female mice, I.V., (maximum solubility).

The values below come from US6177409A, “Method for the site specific synthesis of novel 3-hydroxypyridin-4(1H)ons derivatives from aminomonosaccharides or aminoitols, products obtained by this method and their applications” (priority 1996, dated 2001).

The structures appear in SMILES notation. Bounds are passed on as bounds.

As to `Cc1c(O)c(=O)ccn1C` [Compound L1, 1.2-dimethyl-3-hydroxypyridine-4(1H)-one, reference compound], the mortality in the series “in vivo” (1300 mg/kg) was determined as 100%. Besides, the Secondary effects entry is reported as “spontaneous decrease in activity xx min. before death (5/5)” with mice (mouse, in vivo, ip, 650 mg/kg, pH 7) and “irritation at injection, spontaneous decrease in activity 2-4 min. (5/5)” in the series on mice (mouse, in vivo, iv, 325 mg/kg, pH 2.5).

On to `Cc1c(O)c(=O)ccn1CC(O)C(O)C(O)CO` (centres unmarked) [Compound 17, 1-xylityl-2-methyl-3-hydroxypyridine-4(1H)-one], for which, in the series on mice (setting [1]), the “Acute toxicity in mice” value was “totally innocuous at 1000 mg.kg^-1”. The “toxicity compared with L1” value with mice (mice) is recorded as “less toxic than L1”. Moreover, the “first toxic effects (=LD10)” value in the series with mice (mice, I.V.) was 1300 mg/kg. The “Onset of significant decrease in spontaneous activity after injection” value in the series on mice (mouse, in vivo, iv) is roughly 2 h. For the same compound, the “Mortality (number of mice)” value in the series on mice (mouse, in vivo, iv, 650 mg/kg) was 0; with mice (mouse, in vivo, iv, 1000 mg/kg), 0; in the series with mice (mouse, in vivo, iv, 1300 mg/kg) it was 0. For the same compound, the Secondary effects result in the series with mice (mouse, in vivo, iv, 650 mg/kg) is “none (5/5)”; with mice (mouse, in vivo, iv, 1000 mg/kg), “none (5/5)”.

In the series with mice (female mice, I.V.), `Cc1c(O)c(=O)ccn1C[C@H]1O[C@@H]2OC(C)(C)O[C@@H]2[C@H]1O` [Compound 12, 1-(1',2'-O-isopropylidene-α-D-xylofuranose-5-yl)-2-methyl-3-hydroxypyridine-4-(1H)-one] displayed an LD10 of 1000 mg/kg. Besides, in the series with mice (male mice, I.V.), the “Acute toxicity in mice” value is “totally innocuous at 1300 mg.kg^-1”. Moreover, the “toxicity compared with L1” value with mice (mice) was “less toxic than L1”. In addition, the “first toxic effects (=LD10)” value in the series on mice (mice, I.V.) was determined as 1300 mg/kg. For the same compound, in the series on mice (mouse, in vivo, iv, 1000 mg/kg), the Cause of death entry is “respiratory deficiency” and the Mortality times turned out to be 4 min. The same compound registered a Mortality times with mice (mouse, in vivo, iv, 1300 mg/kg) of 360 to 1080 min.

For `Cc1c(O)c(=O)ccn1CC1COC(C)(C)O1` (centres unmarked) [Compound 11, 1-(2',3'-O-isopropylidene-glyceryl)-2-methyl-3-hydroxypyridine-4(1H)-one], in “in vivo” (iv, LD50 ± SD), the 50% lethal dose (LD50) was found to be 817 ± 75 mg/kg. Further, the “toxicity compared with L1” value in the series with mice (mice) is “toxicity higher than that of L1”. Moreover, the “LD50 ± SD” value in the series on mice (mouse, in vivo, iv) was 745 ± 84 mg/kg. Also, the neurophysiological effects result in the series on mice (mouse, in vivo, iv) is reported as “induces adverse neurophysiological effects”. Also, the “Mortality (number of mice)” value in the series with mice (mouse, in vivo, iv, 500 mg/kg) worked out at 0; in the series with mice (mouse, in vivo, iv, 800 mg/kg), 2; in the series with mice (mouse, in vivo, iv, 1000 mg/kg) it was 4; in the series on mice (mouse, in vivo, iv, 1300 mg/kg), 5. Besides, the Mortality times with mice (mouse, in vivo, iv, 650 mg/kg) was 3 min; with mice (mouse, in vivo, iv, 1300 mg/kg) it was 30-90. Besides, the Secondary effects is recorded as 1 min. convulsive phase followed by 10 min. of drop in spontaneous activity (10/10) in the series on mice (mouse, in vivo, iv, 1000 mg/kg) and “death preceded by a marked convulsive phase (10/10)” in the series on mice (mouse, in vivo, iv, 1300 mg/kg).

As to `Cc1c(O)c(=O)ccn1CC(O)CO` (centres unmarked) [Compound 14, 1-glyceryl-2-methyl-3-hydroxypyridine-4(1H)-one], the “Mortality (number of mice)” value in the series with mice (female, I.V., 1300 mg/kg, water 60/DMSO 40, 5 mice) was 0; in the series with mice (female, I.V., 1300 mg/kg, water, 5 mice) it was 0; in the series with mice (male, I.V., 1300 mg/kg, water 60/DMSO 40, 5 mice) it was 0; in the series on mice (male, I.V., 1300 mg/kg, water, 5 mice) it was 0. For the same compound, the “Acute toxicity in mice” value in the series on mice (setting [1]) was “totally innocuous at 1300 mg.kg^-1”. Further, the “toxicity at 1300 mg/kg” value with mice (mice, I.V., 1300 mg.kg^-1, running text) is “non-toxic”. In “Solubility in water” (water), this compound returned a solubility greater than 130 mg/mL.

For `Cc1c(O)c(=O)ccn1CC1OC(C)(C)OC1C1COC(C)(C)O1` (centres unmarked) [Compound 10, 1-(2',3': 4',5'-di-O-isopropylidene-xylityl)-2-methyl-3-hydroxypyridine-4(1H)-one], the LD50 in the series “in vivo” (ip, LD50) was greater than 650 mg/kg. Besides, the “toxicity compared with L1” value in the series with mice (mice) is on record as “weaker toxicity than L1”. Besides, in the series on mice (mouse, in vivo, ip), the “Macroscopic lesions of visceral organs” value is given as “No visceral organ presented macroscopic lesions”. Besides, in the series on mice (mouse, in vivo, ip, 325 mg/kg), the “Mortality (number of mice)” value was 0 and the Secondary effects result is “none (5/5)”. In addition, in the series on mice (mouse, in vivo, ip, 650 mg/kg), the “Mortality (number of mice)” value is recorded as 0 and the Secondary effects result is “none (5/5)”. Besides, the “solubility at the doses studied” value in “Solubility in water” (acute toxicity doses, compared with L1) is given as “less soluble at the doses studied”. The solubility in water result in the series “Solubility in water” (water) is recorded as “weak”.

One may read the mortality as the percentage killed. High values mean a strong lethal effect, low ones a weak lethal effect. In general, LD50 refers to the dose at which mortality reaches 50%. Higher therefore signals lower toxicity. The solubility is the dissolved amount per volume that the medium holds. A lower solubility goes with a poorly soluble substance.
